Experimental data taken from patent US20100298280A1, “Compounds for the Modulation of Huntingtin Aggregation, Methods and Means for Identifying Such Compounds” (priority 2007, published 2010).
“Also recorded” adds a separate entry of the source.

The compounds below were run on mutant huntingtin aggregates (assay: Filter retardation assay on lysates of treated cells (immunodetection)). Settings: increasing concentrations.
Assay type: cell-based
Experimental: (C) Immunodetection of mutant huntingtin aggregates upon PGL-135 treatment of cells using a filter retardation assay.
The filter retardation assay was accomplished as described (Scherzinger et al., 1999). Cells were lysed (100 mM NaCl, 5 mM MgCl2, 0.5% NP-40, 1 mM EDTA, 50 mM Tris-HCl, protease inhibitors, 25 U/mL benzonase, pH 8.8), denatured 5 min at 95° C. with 2% SDS/50 mM DTT and cell lysates equal 2 μg protein were filtered through a 0.2 μm cellulose acetate membrane (Schleicher & Schuell) using a dot blot unit. The immunodetection was performed using the same antibody detection system as described above. Quantitative determination of the relative aggregate amount was evaluated with the Lumi Imager F1 System and Lumi Analyst 3.0 (Boehringer Mannheim, Germany).
The coherence between decreasing FRET values and less polyglutamine aggregates in PGL-135 treated cells was further validated by fluorescence microscopy imaging (data not shown) and a filter retardation assay (Heiser et al., 2000) (FIG. 2C).

Compound | mutant huntingtin aggregates in filter retardation assay
Cc1cc(O)c(C)c2sc(N)nc12 [PGL-135] | significant decrease

These compounds were tested on CHO-AA8/Q68-Q68 cells (assay: Propidium iodide exclusion assay (viability, cell number) following the FRET assay). Settings: after 48 h.
Experimental: CHO-AA8/Q68-Q68, CHO-AA8/Q17-Q17 and CHO-AA8 cells were seeded in 96 well plates. After attachment of the cells, the medium was exchanged for Ham's F 12 medium containing 10% doxicycline free FBS and 2% DMSO supplemented with compounds. After 48 h the fluorescence intensities of cells were measured using a fluorescence plate reader (Fluoroscan Ascent, Thermo Scietific) and filtersets for CFP (ex 444 nm, em 485 nm), YFP(ex 485 nm, em 538 nm) and FRET (ex 444 nm, em 538 nm). After correction of background fluorescence (subtraction of CHO-AA8 cell fluorescence intensities) the FRET signal was determined using the method: FA=(FRET-a*YFP)/CFP with a=0.11 (Zal u. Gascoigne 2004, Zal et al. 2002). In following, the viability of cells was measured using a propidium iodide exclusion assay (Sattler et al. 1997). PI was added to the cells at final concentration of 0.15 mg/ml. After 15 minutes the PI fluorescence intensity was measured (ex 530 nm, em 620 nm). The cells were then lysed with 0.5% Triton X-100 (TX100) and the PI fluorescence intensity was measured again. Viability of cells was calculated as viability=1−(PIbefore TX100/PIafter TX100).
(§1) The FRET-measurement was performed 48 h later.

Compound | Cell number (effect in words) | Cell number ↓ (concentration)
Cc1cc(O)c(C)c2sc(N)nc12 [PGL-135] | no effect | –
CC(Cc1ccc(O)c(O)c1)C(C)Cc1ccc(O)c(O)c1 (centres unmarked) [NDGA] | – | ↓ 500 nM
OC[C@H]1O[C@H](O[C@H]2O[C@H](CO)[C@@H](O)[C@H](O)[C@H]2O)[C@H](O)[C@@H](O)[C@@H]1O [Trehalose] | no effect | –
Nc1c(/N=N/c2ccc(-c3ccc(/N=N/c4cc(S(=O)(=O)O)c5ccccc5c4N)cc3)cc2)cc(S(=O)(=O)O)c2ccccc12 [congo red] | – | ↓ ≧125 μM
COc1ccc2c(c1)c(CC(=O)O)c(C)n2C(=O)c1ccc(Cl)cc1 [Indomethacin] | – | ↓ ≧1.25 μM
O=C(CCCCCN1C(=O)c2cccc3cccc(c23)C1=O)NO [Scriptaid] | decreased | ↓ ≧25 μM
half-Chrysamine G | no effect | –
NCCSSCCN [Cystamine] | no effect | –
COC1=C2C[C@@H](C)C[C@H](OC)[C@H](O)[C@@H](C)/C=C(\C)[C@H](OC(N)=O)[C@@H](OC)/C=C\C=C(/C)C(=O)NC(=CC1=O)C2=O [geldanamycin] | no effect | –

Same assay, conditions: propidium iodide exclusion, after 48 h

Compound | Viability (effect in words) | Viability ↓ (concentration)
Cc1cc(O)c(C)c2sc(N)nc12 [PGL-135] | not affected; also recorded: without affecting the cell viability; also recorded: no effect | –
CC(Cc1ccc(O)c(O)c1)C(C)Cc1ccc(O)c(O)c1 (centres unmarked) [NDGA] | no effect | –
OC[C@H]1O[C@H](O[C@H]2O[C@H](CO)[C@@H](O)[C@H](O)[C@H]2O)[C@H](O)[C@@H](O)[C@@H]1O [Trehalose] | no effect | –
Nc1c(/N=N/c2ccc(-c3ccc(/N=N/c4cc(S(=O)(=O)O)c5ccccc5c4N)cc3)cc2)cc(S(=O)(=O)O)c2ccccc12 [congo red] | no effect | –
COc1ccc2c(c1)c(CC(=O)O)c(C)n2C(=O)c1ccc(Cl)cc1 [Indomethacin] | – | ↓ 10 μM
O=C(CCCCCN1C(=O)c2cccc3cccc(c23)C1=O)NO [Scriptaid] | – | ↓ ≧25 μM
half-Chrysamine G | no effect | –
NCCSSCCN [Cystamine] | no effect | –
COC1=C2C[C@@H](C)C[C@H](OC)[C@H](O)[C@@H](C)/C=C(\C)[C@H](OC(N)=O)[C@@H](OC)/C=C\C=C(/C)C(=O)NC(=CC1=O)C2=O [geldanamycin] | no effect | –

These compounds were tested against mutant huntingtin aggregates (HDex1Q68 fused to ECFP/EYFP) (Homo sapiens, UniProt P42858, INS38QQQQQQQQQQQQQQQQQQQQQQQQQQQQQQQQQQQQQQQQQQQQQQQ) (assay: Cellular FRET aggregation assay in stable Tet-off CHO-AA8/Q68-Q68 cells). Settings: 48 h, 2% DMSO.
Assay type: cell-based
Experimental: To determine the potential of possibly inhibiting substances the inventors performed dose response assays at concentrations ranging from 1, to 100 μM.
Screening was performed in 96-well plates (greiner bio-one) containing 1×10^4 cells/well of the stably inducible tet off cell lines htt-mut (six-fold) and CHO-AA8 line (three fold) for background control. Simultaneously, each compound was checked for its potential autofluorescence.
Two stable inducible CHO Tet off cell lines were constructed expressing simultaneously wildtype (CHO-AA8/Q17-Q17) or mutant (CHO-AA8/Q68-Q68) huntingtin fragments fused to ECFP or EYFP (FIG. 1B) after withdrawal of doxicycline (dox). Basal and induced expression levels of huntingtin fusion proteins were examined by Western blot analysis at different time intervals (4, 24, 48, and 72 hours). […] For the screening approach stable inducible huntingtin expressing cell lines were seeded in 96-well plates and the fluorescence intensities were measured with a fluorescence plate reader.
The test compounds were mixed in a fresh doxicycline-free medium with 2% DMSO and added to the Tet off cell lines two to three hours after seeding and attachment of the cells.
as §1
Subsequently, a second screening round was performed at concentration range 1, 3, and 10 μM, respectively.

Chain of mutant huntingtin aggregates (HDex1Q68 fused to ECFP/EYFP) (P42858 1-88, stated change not applied): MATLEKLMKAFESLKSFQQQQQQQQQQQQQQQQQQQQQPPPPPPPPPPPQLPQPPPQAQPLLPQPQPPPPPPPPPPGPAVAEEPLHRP

Compound | FRET-signal (effect in words) | FRET-signal ↓ (concentration from which aggregation is reduced) | FRET-signal ↑ (concentration from which aggregation is increased)
Cc1cc(O)c(C)c2sc(N)nc12 [PGL-135] | decrease | – | –
CC(Cc1ccc(O)c(O)c1)C(C)Cc1ccc(O)c(O)c1 (centres unmarked) [NDGA] | no effect | – | –
OC[C@H]1O[C@H](O[C@H]2O[C@H](CO)[C@@H](O)[C@H](O)[C@H]2O)[C@H](O)[C@@H](O)[C@@H]1O [Trehalose] | no effect | – | –
Nc1c(/N=N/c2ccc(-c3ccc(/N=N/c4cc(S(=O)(=O)O)c5ccccc5c4N)cc3)cc2)cc(S(=O)(=O)O)c2ccccc12 [congo red] | – | ↓ ≧30 μM | –
COc1ccc2c(c1)c(CC(=O)O)c(C)n2C(=O)c1ccc(Cl)cc1 [Indomethacin] | – | ↓ ≧1.25 μM | –
O=C(CCCCCN1C(=O)c2cccc3cccc(c23)C1=O)NO [Scriptaid] | – | – | ↑ ≧25 μM
half-Chrysamine G | no effect | > 2.5 µM | –
NCCSSCCN [Cystamine] | no effect | – | –

Same assay, conditions: 48 h, 2% DMSO, listed as Congo red

Compound | FRET-signal ↓ (concentration from which aggregation is reduced) [µM]
Nc1c(/N=N/c2ccc(-c3ccc(/N=N/c4cc(S(=O)(=O)O)c5ccccc5c4N)cc3)cc2)cc(S(=O)(=O)O)c2ccccc12 [congo red] | > 30

Same assay, conditions: 48 h, 2% DMSO, listed as cystamine dihydrochloride

Compound | FRET-signal (effect in words)
NCCSSCCN [Cystamine] | no effects

Same assay, conditions: 48 h, 2% DMSO, listed as threhalose

Compound | FRET-signal (effect in words)
OC[C@H]1O[C@H](O[C@H]2O[C@H](CO)[C@@H](O)[C@H](O)[C@H]2O)[C@H](O)[C@@H](O)[C@@H]1O [Trehalose] | no effects

The compounds below were run against T1, GST-tagged mutant htt-exon-1 with 51 polyglutamines (GST-HDexQ51) (Homo sapiens, UniProt P42858, INS38QQQQQQQQQQQQQQQQQQQQQQQQQQQQQQ) (assay: Cell free filter retardation assay). Settings: 16 h, 23° C., tested 1-200 μM.
T1 construct: GST-tagged mutant htt-exon-1 with 51 polyglutamines (GST-HDexQ51); GST (N, cleaved yes)
Assay type: biochemical
Experimental: To determine if the cellular environment is a prerequisite for the inhibitory effect of the isolated natural compounds or if the compounds directly interfere with the aggregation process, the inventors performed a cell free filter retardation assay (Scherzinger et al., 1997).
Briefly, GST-tagged mutant htt-exon-1 with 51 polyglutamines (GST-HDexQ51) is incubated with the compounds and factor Xa to remove the GST tag for proper aggregation (16 h, 23° C.). The aggregated peptides are denaturized by boiling in SDS buffer (10 min, 99° C.) and filtered though a cellulose acetate membrane. The insoluble aggregates are retained at the membrane and detected with an anti-huntingtin antibody.
The isolated natural compounds, PGL-135 and congo red were tested in a concentration range of 1-200 μM. […] (Data not shown). Concentration of less than 50 μM congo red produced an enhancement of the aggregation process.

T1 sequence (P42858 with tags, fused parts or gaps with the stated changes): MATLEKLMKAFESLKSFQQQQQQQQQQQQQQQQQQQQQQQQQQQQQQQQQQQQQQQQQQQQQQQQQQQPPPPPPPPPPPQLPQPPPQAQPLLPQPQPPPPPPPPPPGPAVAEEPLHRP

Compound | enhancement of the aggregation process (concentration) | inhibited the formation of aggregates (concentration) [µM]
Nc1c(/N=N/c2ccc(-c3ccc(/N=N/c4cc(S(=O)(=O)O)c5ccccc5c4N)cc3)cc2)cc(S(=O)(=O)O)c2ccccc12 [congo red] | less than 50 μM | > 50

Same assay, conditions: tested 1-200 μM

Compound | inhibition of aggregate formation (in words)
Cc1cc(O)c(C)c2sc(N)nc12 [PGL-135] | Only congo red reliably inhibited the formation of aggregates
